From ChEMBL document CHEMBL3991601, “The target landscape of clinical kinase drugs” (Science, 2017) come the findings set out here.

Structures are written as SMILES. The source made the active and inactive calls. Bounds are passed on as bounds.

Experiment [1] deals with T1, Adenine phosphoribosyltransferase (Homo sapiens, UniProt P07741).
T1 sequence (P07741 whole entry): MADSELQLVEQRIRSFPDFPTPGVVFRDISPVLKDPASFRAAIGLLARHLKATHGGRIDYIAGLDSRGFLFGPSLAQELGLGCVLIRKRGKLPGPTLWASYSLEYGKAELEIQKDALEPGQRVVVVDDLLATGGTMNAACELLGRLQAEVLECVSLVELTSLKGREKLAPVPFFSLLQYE

Experiment [2] has as its target T2, RNA cytidine acetyltransferase (Homo sapiens, UniProt Q9H0A0).
T2 sequence (Q9H0A0 whole entry): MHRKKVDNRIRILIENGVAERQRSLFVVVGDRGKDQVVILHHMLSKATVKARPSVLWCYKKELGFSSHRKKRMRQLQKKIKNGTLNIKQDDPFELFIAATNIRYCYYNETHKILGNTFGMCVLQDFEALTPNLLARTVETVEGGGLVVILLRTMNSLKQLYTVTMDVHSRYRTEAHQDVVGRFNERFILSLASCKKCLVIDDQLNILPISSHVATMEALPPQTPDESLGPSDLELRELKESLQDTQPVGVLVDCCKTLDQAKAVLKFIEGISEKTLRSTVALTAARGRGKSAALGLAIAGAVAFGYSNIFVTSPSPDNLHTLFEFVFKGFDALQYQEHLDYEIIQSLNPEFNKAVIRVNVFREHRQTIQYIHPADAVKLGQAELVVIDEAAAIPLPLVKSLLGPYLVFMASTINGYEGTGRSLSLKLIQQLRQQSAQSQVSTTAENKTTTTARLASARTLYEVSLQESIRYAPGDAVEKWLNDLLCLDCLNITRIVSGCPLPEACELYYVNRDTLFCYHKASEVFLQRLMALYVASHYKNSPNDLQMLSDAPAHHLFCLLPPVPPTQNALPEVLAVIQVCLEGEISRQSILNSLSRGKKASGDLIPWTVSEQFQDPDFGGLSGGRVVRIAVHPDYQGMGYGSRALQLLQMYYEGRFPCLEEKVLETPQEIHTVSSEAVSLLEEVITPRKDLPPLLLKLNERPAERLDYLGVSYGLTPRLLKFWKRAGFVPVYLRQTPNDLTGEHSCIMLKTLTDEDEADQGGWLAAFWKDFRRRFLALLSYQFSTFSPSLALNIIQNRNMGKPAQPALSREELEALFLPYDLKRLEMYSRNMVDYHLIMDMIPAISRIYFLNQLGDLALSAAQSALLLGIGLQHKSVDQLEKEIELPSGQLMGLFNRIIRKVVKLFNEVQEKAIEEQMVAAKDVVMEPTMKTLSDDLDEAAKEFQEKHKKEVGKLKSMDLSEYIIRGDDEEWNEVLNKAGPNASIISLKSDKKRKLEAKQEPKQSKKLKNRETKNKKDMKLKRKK

Experiment [3] concerns the target cAMP-dependent protein kinase catalytic subunit beta (Homo sapiens, UniProt P22694).
Experiment [4] addresses Receptor-interacting serine/threonine-protein kinase 3 (Homo sapiens, UniProt Q9Y572).
Experiment [5] concerns the target 5'-AMP-activated protein kinase catalytic subunit alpha-1 (Homo sapiens, UniProt Q13131).
In experiment [6] the target is T3, Mitogen-activated protein kinase kinase kinase 5 (Homo sapiens, UniProt Q99683).
T3 sequence (Q99683 whole entry): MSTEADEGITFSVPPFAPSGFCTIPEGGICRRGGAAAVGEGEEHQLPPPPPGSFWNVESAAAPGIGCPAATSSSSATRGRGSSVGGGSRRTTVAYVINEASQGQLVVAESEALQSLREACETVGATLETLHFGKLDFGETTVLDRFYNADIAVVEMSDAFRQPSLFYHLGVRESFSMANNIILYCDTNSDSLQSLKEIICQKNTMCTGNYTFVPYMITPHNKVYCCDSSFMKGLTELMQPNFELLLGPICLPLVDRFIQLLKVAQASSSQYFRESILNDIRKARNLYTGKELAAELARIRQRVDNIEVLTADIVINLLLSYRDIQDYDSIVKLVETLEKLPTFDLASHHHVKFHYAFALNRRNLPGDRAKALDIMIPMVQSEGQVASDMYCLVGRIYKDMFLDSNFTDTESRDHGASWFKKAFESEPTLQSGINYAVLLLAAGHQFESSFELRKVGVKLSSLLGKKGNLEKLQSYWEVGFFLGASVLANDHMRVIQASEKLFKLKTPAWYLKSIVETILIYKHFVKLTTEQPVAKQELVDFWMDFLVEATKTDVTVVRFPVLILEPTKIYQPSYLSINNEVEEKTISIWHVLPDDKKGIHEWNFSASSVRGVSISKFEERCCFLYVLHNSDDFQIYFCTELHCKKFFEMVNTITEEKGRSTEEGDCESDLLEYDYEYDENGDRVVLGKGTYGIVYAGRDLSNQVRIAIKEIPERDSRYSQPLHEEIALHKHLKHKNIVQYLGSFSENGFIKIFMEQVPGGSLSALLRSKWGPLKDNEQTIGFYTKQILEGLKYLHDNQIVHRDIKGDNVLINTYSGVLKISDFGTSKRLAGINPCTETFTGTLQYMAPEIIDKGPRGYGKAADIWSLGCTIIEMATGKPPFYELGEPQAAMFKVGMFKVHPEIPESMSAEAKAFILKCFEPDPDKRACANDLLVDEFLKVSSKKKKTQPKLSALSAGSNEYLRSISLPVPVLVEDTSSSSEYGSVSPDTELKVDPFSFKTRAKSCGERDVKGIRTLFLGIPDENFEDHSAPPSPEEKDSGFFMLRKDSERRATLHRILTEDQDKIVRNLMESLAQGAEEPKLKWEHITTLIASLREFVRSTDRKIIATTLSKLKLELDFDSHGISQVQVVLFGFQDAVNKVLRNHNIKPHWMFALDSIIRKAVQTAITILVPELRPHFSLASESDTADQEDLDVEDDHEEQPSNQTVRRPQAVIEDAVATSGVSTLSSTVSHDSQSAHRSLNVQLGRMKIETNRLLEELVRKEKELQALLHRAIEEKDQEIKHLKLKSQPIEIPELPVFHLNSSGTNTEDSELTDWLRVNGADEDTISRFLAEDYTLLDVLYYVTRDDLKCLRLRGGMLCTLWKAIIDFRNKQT
Note: in the data inactive means no Kd found up to 30 µM.

5'-AMP-activated protein kinase catalytic subunit alpha-1, sequence (Q13131 whole entry): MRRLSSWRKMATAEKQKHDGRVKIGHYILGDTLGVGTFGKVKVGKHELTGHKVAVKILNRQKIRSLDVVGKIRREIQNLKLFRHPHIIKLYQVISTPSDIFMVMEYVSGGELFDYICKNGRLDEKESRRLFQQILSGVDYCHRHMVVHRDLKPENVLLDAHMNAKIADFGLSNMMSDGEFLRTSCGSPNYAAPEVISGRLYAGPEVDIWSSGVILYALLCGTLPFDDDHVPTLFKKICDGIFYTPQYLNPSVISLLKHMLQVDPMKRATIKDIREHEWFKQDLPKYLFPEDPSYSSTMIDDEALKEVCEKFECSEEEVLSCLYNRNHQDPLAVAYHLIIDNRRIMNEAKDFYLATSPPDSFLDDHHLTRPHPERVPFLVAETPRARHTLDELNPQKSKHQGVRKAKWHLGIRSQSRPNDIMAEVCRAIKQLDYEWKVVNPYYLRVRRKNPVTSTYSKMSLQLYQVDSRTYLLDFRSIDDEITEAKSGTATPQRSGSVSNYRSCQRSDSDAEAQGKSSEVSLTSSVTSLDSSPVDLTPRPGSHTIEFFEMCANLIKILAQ
Receptor-interacting serine/threonine-protein kinase 3, sequence (Q9Y572 whole entry): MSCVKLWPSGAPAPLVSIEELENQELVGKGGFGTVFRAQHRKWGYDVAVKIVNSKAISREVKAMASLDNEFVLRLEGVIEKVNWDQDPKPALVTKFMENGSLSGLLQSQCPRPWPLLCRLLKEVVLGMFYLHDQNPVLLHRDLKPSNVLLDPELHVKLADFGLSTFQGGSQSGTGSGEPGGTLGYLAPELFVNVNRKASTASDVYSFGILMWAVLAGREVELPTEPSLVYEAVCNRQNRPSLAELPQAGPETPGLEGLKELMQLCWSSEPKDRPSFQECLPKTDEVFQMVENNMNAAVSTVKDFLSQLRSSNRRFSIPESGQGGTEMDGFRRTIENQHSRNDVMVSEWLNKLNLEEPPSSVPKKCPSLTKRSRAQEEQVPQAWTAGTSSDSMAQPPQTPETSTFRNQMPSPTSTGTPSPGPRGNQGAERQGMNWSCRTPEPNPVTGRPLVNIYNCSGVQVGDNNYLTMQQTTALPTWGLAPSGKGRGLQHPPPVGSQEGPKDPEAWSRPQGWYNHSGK

For the compound `C[C@@H](Oc1cc(C(=O)Nc2ccc(C(=O)N3CCN(C)CC3)cc2)nnc1N)c1c(Cl)ccc(F)c1Cl`, the Kd in experiment [1], in experiment [2], in experiment [3], in experiment [4], in experiment [5] and in experiment [6] was > 30 µM (inactive) throughout.

As to `C[C@H]1CNCCCN1S(=O)(=O)c1cccc2cncc(F)c12`, the Kd – broadly, a measure of binding affinity in units of concentration – was > 30 µM (inactive) in experiment [1]; > 30 µM (inactive) in experiment [2]; > 30 µM (inactive) in experiment [3]; > 30 µM (inactive) in experiment [4]; 3.27 µM (active) in experiment [5]; > 30 µM (inactive) in experiment [6].

In the case of `CC(=O)c1cnc2ccc(-c3cc(Cl)c(O)c(Cl)c3)nc2c1N[C@H]1CC[C@H](CN(C)C)CC1`, the Kd in experiment [1] is > 30 µM (inactive); in experiment [2] it was > 30 µM (inactive); in experiment [3], > 30 µM (inactive); in experiment [4] it was 0.324 µM; in experiment [6], 0.878 µM (active).

Regarding `CCNC(=O)C#Cc1ccc2c(c1)NC(=O)/C2=C(\Nc1ccc(CN(C)C)cc1)c1ccccc1`, the Kd was > 30 µM (inactive) in experiment [1]; > 30 µM (inactive) in experiment [2]; > 30 µM (inactive) in experiment [3]; > 30 µM (inactive) in experiment [4]; 3.05 µM (active) in experiment [5]; > 30 µM (inactive) in experiment [6].

For the compound `Nc1ncnc2c1c(-c1cccc(OCc3ccccc3)c1)cn2[C@H]1C[C@@H](CN2CCC2)C1` [AEW-541], the Kd in experiment [2] is > 30 µM (inactive); in experiment [3] it was > 30 µM (inactive); in experiment [4] it was 6.45 µM (active); in experiment [5], > 30 µM (inactive); in experiment [6], > 30 µM (inactive).

As for `COc1cc(Nc2ncc3c(n2)-c2ccc(Cl)cc2C(c2c(F)cccc2OC)=NC3)ccc1C(=O)O` [ALISERTIB], the Kd in experiment [1], in experiment [2], in experiment [3], in experiment [4] and in experiment [6] was > 30 µM (inactive) in each case.

For the compound `Cc1nc(NC(=O)N2CCC[C@H]2C(N)=O)sc1-c1ccnc(C(C)(C)C(F)(F)F)c1` [ALPELISIB], the Kd in experiment [1], in experiment [2], in experiment [3], in experiment [4], in experiment [5] and in experiment [6] was > 30 µM (inactive) in each case.

With `C=CC(=O)Nc1cc2c(Nc3ccc(F)c(Cl)c3)ncnc2cc1C#CC(C)(C)N1CCN(C)CC1` [AV-412 FREE BASE], the Kd in experiment [2], in experiment [3], in experiment [4], in experiment [5] and in experiment [6] was > 30 µM (inactive) throughout.

Turning to `Cn1cnc2c(F)c(Nc3ccc(Br)cc3F)c(C(=O)NOCCO)cc21` [BINIMETINIB], the Kd in experiment [1], in experiment [2], in experiment [3], in experiment [4], in experiment [5] and in experiment [6] was > 30 µM (inactive) in each case.

Consider `CCn1c(C(=O)N(C2CC2)C2CC2)cc2c3c(ncn3C)c(Nc3cc(C)n(C)n3)nc21` [BMS-911543], for which the Kd in experiment [1], in experiment [2], in experiment [3], in experiment [4], in experiment [5] and in experiment [6] was > 30 µM (inactive) throughout.

Consider `Cc1cc(Nc2ncc(Cl)c(Nc3ccccc3S(=O)(=O)C(C)C)n2)c(OC(C)C)cc1C1CCNCC1` [CERITINIB], for which the Kd in experiment [1], in experiment [2], in experiment [3], in experiment [4], in experiment [5] and in experiment [6] was > 30 µM (inactive) in each case.

For the compound `Cc1nc2cc(-n3ncc(C(=O)c4cc5ccccc5[nH]4)c3N)ccc2[nH]1` [FGFR INHIBITOR DEBIO 1347], the Kd in experiment [1], in experiment [2], in experiment [3], in experiment [4], in experiment [5] and in experiment [6] was > 30 µM (inactive) in each case.

Consider `Cc1cccc(-c2nn3c(c2-c2ccnc4ccc(C(N)=O)cc24)CCC3)n1` [GALUNISERTIB], for which the Kd is > 30 µM (inactive) in experiment [2]; > 30 µM (inactive) in experiment [3]; 0.011 µM (active) in experiment [4]; > 30 µM (inactive) in experiment [5]; > 30 µM (inactive) in experiment [6].

On to `CNC(=O)c1nn(C)c2c1C(C)(C)Cc1cnc(Nc3ccc(N4CCN(C)CC4)cc3)nc1-2` [MILCICLIB], for which the Kd in experiment [2], in experiment [3], in experiment [4], in experiment [5] and in experiment [6] was > 30 µM (inactive) throughout.

For the compound `Cn1cc(-c2cnc3ccc4ccc(CS(=O)(=O)NCc5ccccn5)cc4c(=O)c3c2)cn1` [MK-8033], the Kd in experiment [2], in experiment [3], in experiment [4], in experiment [5] and in experiment [6] was > 30 µM (inactive) each time.

Regarding `Cc1nc(Nc2n[nH]c3c2CN(C(=O)N[C@H](CN(C)C)c2ccccc2)C3(C)C)c2sccc2n1` [PF-03758309], the Kd was > 30 µM (inactive) in experiment [1]; > 30 µM (inactive) in experiment [2]; > 30 µM (inactive) in experiment [4]; 0.006 µM (active) in experiment [5]; > 30 µM (inactive) in experiment [6].

On to `O=C(NOCCO)c1cc(CN2OCCCC2=O)c(F)c(F)c1Nc1ccc(I)cc1F` [RO-4987655], for which the Kd in experiment [1], in experiment [2] and in experiment [4] was > 30 µM (inactive) in each case.

As for `CC(C)c1cc(CNc2nc(Nc3cc(C4CC4)[nH]n3)cc(N3CCN(C)CC3)n2)on1` [XL-228], the Kd in experiment [2] was > 30 µM (inactive); in experiment [3], > 30 µM (inactive); in experiment [4], > 30 µM (inactive); in experiment [5], 0.38 µM (active); in experiment [6], > 30 µM (inactive).
